In patent publication US6204293A, “Inhibitors of protein isoprenyl transferases” (University of Pittsburgh, priority 1998, dated 2001):
Where a name gives a salt, the structure may show the parent alone. Read-outs that look alike come from different tables or passages of the source. Blank lines part the entries; values can stand above or below the compound they belong to.

Target: T1, Rat brain protein farnesyltransferase (Rattus norvegicus, UniProt Q02293+Q04631)
T1 construct: Rat brain protein farnesyltransferase activity is measured; from tissue; host or cells: rat brain
T1 sequence (Q02293 whole entry, one chain of several): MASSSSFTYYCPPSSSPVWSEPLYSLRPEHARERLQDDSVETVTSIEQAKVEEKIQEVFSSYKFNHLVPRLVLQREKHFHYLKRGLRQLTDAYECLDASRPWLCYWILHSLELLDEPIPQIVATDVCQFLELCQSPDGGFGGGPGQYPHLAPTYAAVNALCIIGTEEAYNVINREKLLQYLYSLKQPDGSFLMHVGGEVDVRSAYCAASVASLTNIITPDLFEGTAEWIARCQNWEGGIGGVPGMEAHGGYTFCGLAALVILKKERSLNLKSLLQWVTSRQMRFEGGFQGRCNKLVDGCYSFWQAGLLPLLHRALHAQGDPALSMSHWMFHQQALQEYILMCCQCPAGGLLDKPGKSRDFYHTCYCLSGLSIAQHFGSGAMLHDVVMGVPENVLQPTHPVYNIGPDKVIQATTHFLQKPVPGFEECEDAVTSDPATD
Assay: % inhibition of farnesylation, scintillation proximity assay with biotin-K Ras B fragment
Type: biochemical
Conditions: for % inhibition at 1 × 10^-5 M: Table 1; for % inhibition at 1 × 10^-8 M: Table 4
Source text: The ability of the compounds of the invention to inhibit protein farnesyltransferase or protein geranylgeranyltransferase can be measured according to the method of Moores, et al., J. Biol. Chem. 266: 14603 (1991) or the method of Vogt, et al., J. Biol. Chem. 270:660-664 (1995). In addition, procedures for determination of the inhibition of farnesylation of the oncogene protein Ras are described by Goldstein, et al., J. Biol. Chem., 266:15575-15578 (1991) and by Singh in U.S. Pat. No. 5,245,061.
In addition, in vitro inhibition of protein farnesyltransferase may be measured by the following procedure. Rat brain protein farnesyltransferase activity is measured using an Amersham Life Science commercial scintillation proximity assay kit and substituting a biotin-K Ras B fragment (biotin-[…]CO2 H), 0.1 mM final concentration, for the biotin-lamin substrate provided by Amersham. The enzyme is purified according to Reiss, Y., et al., Cell, 62: 81-88 (1990), utilizing steps one through three.
The % inhibition of protein farnesyltransferase was determined for representative compounds of the invention.

[1] = read-out: % inhibition at 0.1 μM (*), Table 6, * footnote 0.1 μM (title: 0.1 mM)
[2] = read-out: % inhibition at 1 × 10^-7 M, Table 3, 1 × 10^-7 M
[3] = read-out: % inhibition at 1 × 10^-8 M
[4] = read-out: % inhibition at 1 × 10^-7 M

% inhibition at 1 × 10^-7 M (Table 3, 1 × 10^-7 M): 96%
SMILES: CSCC[C@H](NC(=O)c1ccc(CN[C@H](CSc2ccccc2)CC2CCCCC2)cc1-c1ccccc1C)C(=O)O [Example 623]

% inhibition at 1 × 10^-6 M (Table 2, 1 × 10^-6 M): 62%
SMILES: CSCC[C@H](NC(=O)c1ccc(CNCc2ccc(N)cc2)cc1-c1ccccc1)C(=O)O [Example 653]

inhibition at 0.1 µM [1]: 86%
SMILES: CSCC[C@H](NC(=O)c1ccc(COC(CC2CCCCC2)c2sc(C)nc2C)cc1-c1ccccc1C)C(=O)O (stereo partly drawn) [Example 1096, N-[4-(1-(2,4-dimethylthiazol-5-yl)-2-cyclohexylethoxy)methyl)-2-(2-methylphenyl)benzoyl]methionine lithium salt]

% inhibition at 1 × 10^-6 M (Table 2, 1 × 10^-6 M): 92%
SMILES: CSCC[C@H](NC(=O)c1ccc(CN(Cc2ccccc2)c2ccccc2C(C)=O)cc1-c1ccccc1C)C(=O)O [Example 844]

% inhibition at 1 × 10^-6 M (Table 2, 1 × 10^-6 M): 72%
SMILES: CSCC[C@H](NC(=O)c1ccc(CN(C(C)C)C2(Cc3ccccc3)CCCC2)cc1-c1ccccc1C)C(=O)O [Example 343]

inhibition at 0.1 µM [2]: 51%
SMILES: CSCC[C@H](NC(=O)c1ccc(CSc2nc(C)cc(C)n2)cc1-c1ccccc1C)C(=O)O [Example 743]

% inhibition at 1 × 10^-6 M (Table 2, 1 × 10^-6 M): 55%
SMILES: CSCC[C@H](NC(=O)c1ccc(CN[C@@H](/C=C\CC(C)C)CC2CCCCC2)cc1-c1ccccc1)C(=O)O [Example 665]

% inhibition at 1 × 10^-5 M: 75%
SMILES: C=C[C@@H](CC1CCCCC1)NCc1ccc(C(=O)N[C@@H](CCSC)C(=O)O)c(-c2ccccc2)c1 [Example 664]

% inhibition at 1 × 10^-7 M (Table 3, 1 × 10^-7 M): 85%
SMILES: CSCC[C@H](NC(=O)c1ccc(CCc2ccc(Oc3ccccc3)nn2)cc1-c1ccccc1C)C(=O)O [Example 811]

inhibition at 0.1 µM [1]: 91%
SMILES: CCCCC(CCC1CCCCC1)OCc1ccc(C(=O)N[C@@H](CCSC)C(=O)O)c(-c2ccccc2C)c1 (stereo partly drawn) [Example 1192, N-[4-(1-Cyclohexylheptan-3-yloxymethyl-2-(2-methylphenyl)benzoyl]methioninelithium salt]

% inhibition at 1 × 10^-8 M: 79%
SMILES: CSCC[C@H](NC(=O)c1ccc(CN(C(C)=O)C(CC2CCCCC2)CC2CCCCC2)cc1-c1ccccc1C)C(=O)O [Example 909]

% inhibition at 1 × 10^-6 M (Table 2, 1 × 10^-6 M): 93%
SMILES: CSCC[C@H](NC(=O)c1ccc(CN(C2CC2)C(C)(C)Cc2ccccc2)cc1-c1ccccc1C)C(=O)O [Example 315]

% inhibition at 1 × 10^-5 M: 73%
SMILES: CSCC[C@H](NC(=O)c1ccc(CNc2ccc(O)cc2)cc1-c1ccccc1)C(=O)O [Example 689]

inhibition at 0.01 µM (read-out: % inhibition at 0.01 μM (**), Table 6, ** footnote 0.01 μM (title: 0.01 mM)): 60%
SMILES: CSCC[C@H](NC(=O)c1ccc(CO[C@@H](CC2CCCCC2)C(=O)N2CCOCC2)cc1-c1ccccc1C)C(=O)O [Example 1053, N-[4-(3-cyclohexyl-N-morpholin-4-ylpropion-2-yloxymethyl)-2-(2-methylphenyl)benzoyl]methionine, lithium salt]

% inhibition at 1 × 10^-6 M (Table 2, 1 × 10^-6 M): 95%
SMILES: CSCC[C@H](NC(=O)c1ccc(CCc2cnc(Oc3ccccc3)cn2)cc1-c1ccccc1C)C(=O)O [Example 813]

% inhibition at 1 × 10^-7 M (Table 3, 1 × 10^-7 M): 92%
SMILES: CSCC[C@H](NC(=O)c1ccc(CCc2ccc(Oc3ccccc3Cl)cc2)cc1-c1ccccc1C)C(=O)O [Example 855]

% inhibition at 1 × 10^-6 M (Table 2, 1 × 10^-6 M): 73%
SMILES: CSCCC(NC(=O)c1ccc(CNC(CO)c2ccccc2)cc1-c1ccccc1)C(=O)O (stereo not drawn) [Example 658]

% inhibition at 1 × 10^-7 M (Table 3, 1 × 10^-7 M): 98%
SMILES: CCS(=O)(=O)C[C@H](CC1CCCCC1)NCc1ccc(C(=O)N[C@@H](CCS(C)(=O)=O)C(=O)O)c(-c2ccccc2C)c1 [Example 621]

% inhibition at 1 × 10^-5 M: 40%
SMILES: CSCC[C@H](NC(=O)c1ccc(CNCCCCc2ccccc2)cc1-c1ccccc1)C(=O)O [Example 718]

SMILES: CSCC[C@H](NC(=O)c1ccc(COCc2ccccc2Cl)cc1-c1ccccc1C)C(=O)O [Example 930, N-[4-(2-chlorobenzyloxymethyl)-2-(2-methylphenyl)benzoyl]methionine lithium salt]
inhibition at 0.01 µM [3]: 66%

% inhibition at 1 × 10^-5 M: 53%
SMILES: CSCC[C@H](NC(=O)c1ccc(CNc2ccc3c(c2)Cc2ccccc2-3)cc1-c1ccccc1)C(=O)O [Example 706]

SMILES: CSCC[C@H](NC(=O)c1ccc(CN(Cc2ccccc2)c2ccccc2SC)cc1-c1ccccc1C)C(=O)[O-].[Li+] [Example 850]
% inhibition at 1 × 10^-6 M (Table 2, 1 × 10^-6 M): 90%

inhibition at 1 µM (read-out: % inhibition at 1 × 10^-6 M, Table 2, 1 × 10^-6 M): 88%
SMILES: CSCC[C@H](NC(=O)c1ccc(CS[C@H](CO)Cc2ccccc2)cc1-c1ccccc1)C(=O)O [Example 545, N-[4-(3-phenylpropan-1-ol-2-ylthiomethyl)-2-phenylbenzoyl]methionine, sodium salt]

inhibition at 0.1 µM [1]: 86%
SMILES: CSCC[C@H](NC(=O)c1ccc(COCC2CCCN2C(=O)OCc2ccccc2)cc1-c1ccccc1C)C(=O)O (stereo partly drawn) [Example 1128, lithium salt]

SMILES: CSCC[C@H](NC(=O)c1ccc(CN(Cc2ccccc2)c2ccc(SC)cc2)cc1-c1ccccc1C)C(=O)[O-].[Li+] [Example 852]
% inhibition at 1 × 10^-8 M: 79%

% inhibition at 1 × 10^-6 M (Table 2, 1 × 10^-6 M): 31%
SMILES: CSCC[C@H](NC(=O)c1ccc(CNCc2ccco2)cc1-c1ccccc1)C(=O)[O-].[Li+] [Example 302]

% inhibition at 1 × 10^-6 M (Table 2, 1 × 10^-6 M): 55%
SMILES: CSCC[C@H](NC(=O)c1ccc(CN(Cc2ccccc2)Cc2ccccc2)cc1-c1ccccc1)C(=O)O [Example 834]

SMILES: CSCC[C@H](NC(=O)c1ccc(COCCc2ccc(Cl)cc2)cc1-c1ccccc1C)C(=O)O [Example 590, N-[4-(2-(4-chlorophenyl)ethoxymethyl)-2-(2-methylphenyl)benzoyl]methionine lithium salt]
inhibition at 0.1 µM [4]: 95%

inhibition at 0.1 µM [2]: 83%
SMILES: CSCC[C@H](NC(=O)c1ccc(CSc2ccccc2C(C)C)cc1-c1ccccc1C)C(=O)O [Example 739]

% inhibition at 1 × 10^-6 M (Table 2, 1 × 10^-6 M): 97%
SMILES: Cc1ccccc1-c1cc(CNC(C)(C)Cc2ccccc2)ccc1C(=O)N[C@@H](CCS(C)(=O)=O)C(=O)O [Example 311]

% inhibition at 1 × 10^-7 M (Table 3, 1 × 10^-7 M): 91%
SMILES: CSCC[C@H](NC(=O)c1ccc(CNCC(=O)N(Cc2ccccc2)Cc2ccccc2)cc1-c1ccccc1C)C(=O)O [Example 914]

inhibition at 0.1 µM [2]: 88%
SMILES: CSCC[C@H](NC(=O)c1ccc(COCc2ccc(C)o2)cc1-c1ccccc1C)C(=O)O [Example 532, N-[4-(5-methylfuran-2-ylmethoxymethyl)-2-(2-methylphenyl)benzoyl]methioninelithium salt]

% inhibition at 1 × 10^-7 M (Table 3, 1 × 10^-7 M): 91%
SMILES: CSCC[C@H](NC(=O)c1ccc(CN(Cc2ccc(Cl)cc2)c2ccccc2)cc1-c1ccccc1C)C(=O)O [Example 781]

SMILES: CSCC[C@H](NC(=O)c1ccc(COC(Cc2ccccc2)c2ccco2)cc1-c1ccccc1C)C(=O)O (stereo partly drawn) [Example 534, N-[4-(1-furan-2-yl-2-phenylethoxymethyl)-2-(2-methylphenyl)benzoyl]methionine lithium salt]
inhibition at 0.1 µM [4]: 84%

% inhibition at 1 × 10^-6 M (Table 2, 1 × 10^-6 M): 98%
SMILES: CSCC[C@H](NC(=O)c1ccc(CN(C2CC2)C2(CC3CCCCC3)CC2)cc1-c1ccccc1C)C(=O)O [Example 324]

SMILES: CSCC[C@H](NC(=O)c1ccc(CN(CCC2CCCCC2)Cc2ccccc2)cc1-c1ccccc1C)C(=O)[O-].[Li+] [Example 605]
% inhibition at 1 × 10^-8 M: 68%

% inhibition at 1 × 10^-6 M (Table 2, 1 × 10^-6 M): 84%
SMILES: CNCC(=O)Nc1ccc(C(=O)N[C@@H](CCSC)C(=O)O)c(-c2ccccc2)c1 [Example 749]

% inhibition at 1 × 10^-8 M: 84%
SMILES: CSCC[C@H](NC(=O)c1ccc(CN(CCC2CCCCC2)C(=O)c2ccccc2)cc1-c1ccccc1C)C(=O)O [Example 762]

% inhibition at 1 × 10^-5 M: 45%
SMILES: CSCC[C@H](NC(=O)c1ccc(CNc2cc(C(=O)O)cc(C(=O)O)c2)cc1-c1ccccc1)C(=O)O [Example 710]

SMILES: CSCC[C@H](NC(=O)c1ccc(COCc2ccc(-c3cccc([N+](=O)[O-])c3)o2)cc1-c1ccccc1C)C(=O)O [Example 440, N-[4-(5-(3-nitrophenyl)furan-2-ylmethoxymethyl)-2-(2-methylphenyl)benzoyl]methionine lithium salt]
inhibition at 0.1 µM [4]: 92%

% inhibition at 1 × 10^-6 M (Table 2, 1 × 10^-6 M): 91%
SMILES: Cc1ccccc1-c1cc(CN(C2CC2)C2(Cc3ccccc3)CCCC2)ccc1C(=O)N[C@@H](CCS(C)(=O)=O)C(=O)O [Example 345]

% inhibition at 1 × 10^-6 M (Table 2, 1 × 10^-6 M): 85%
SMILES: CSCC[C@H](NC(=O)c1ccc(CNCCSC(C)(C)C)cc1-c1ccccc1)C(=O)O [Example 627]

% inhibition at 1 × 10^-6 M (Table 2, 1 × 10^-6 M): 37%
SMILES: CSCC[C@H](NC(=O)c1ccc(NC(=O)Cc2ccc(C)cc2)cc1-c1ccccc1C)C(=O)O [Example 541]

SMILES: CSCC[C@H](NC(=O)c1ccc(COCc2cnc(-c3ccccc3Cl)s2)cc1-c1ccccc1C)C(=O)O [Example 897, N-[4-(2-(2-chlorophenyl)thiazol-5-ylmethoxymethyl)-2-(2-methylphenyl)benzoyl]methionine lithium salt]
inhibition at 0.01 µM [3]: 76%

% inhibition at 1 × 10^-6 M (Table 2, 1 × 10^-6 M): 41%
SMILES: COc1cccc(CNCc2ccc(C(=O)N[C@@H](CCSC)C(=O)O)c(-c3ccccc3)c2)c1 [Example 652]

% inhibition at 1 × 10^-5 M: 61%
SMILES: CSCC[C@H](NC(=O)c1ccc(CNc2nccs2)cc1-c1ccccc1)C(=O)O [Example 374]

% inhibition at 1 × 10^-8 M: 86%
SMILES: CCSC[C@H](CC(C)C)NCc1ccc(C(=O)N[C@@H](CCSC)C(=O)O)c(-c2ccccc2C)c1 [Example 905]

% inhibition at 1 × 10^-8 M: 70%
SMILES: COc1cccc(CN(Cc2ccc(C(=O)N[C@@H](CCSC)C(=O)O)c(-c3ccccc3C)c2)c2ccccc2)c1 [Example 779]
